Data taken from patent publication US10702505B2, “Rifaximin” (CIPLA Limited, priority 2006, dated 2020).
Like-named read-outs stand apart in the source and are kept apart here.

Tests used:
Assay type in all cases: physicochemical
[1] = intrinsic dissolution of amorphous rifaximin against the α Form; details: 37±0.5° C., 100 rpm
Protocol: Temperature: 37±0.5° C. Rotation speed: 100 rpm Particle size: Amorphous rifaximin—11 microns • α Form of rifaximin—13 microns

bulk density = test: bulk density
tapped density = test: tapped density
[2] = 15 minutes, 1000 ml 0.1M sodium dihydrogen phosphate monohydrate + 4.5 g sodium lauryl sulphate

Row | SMILES | % Release [1, 2] | % Release ([1]; 30 minutes, same medium) | % Release ([1]; 45 minutes, same medium) | % Release ([1]; 60 minutes, same medium) | % Release ([1]; 120 minutes, same medium) | % Release ([1]; 180 minutes, same medium) | % Release ([1]; 240 minutes, same medium) | % Release ([1]; 360 minutes, same medium) | % Release ([1]; 480 minutes, same medium) | % Release ([1]; 600 minutes, same medium) | % Release ([1]; 720 minutes, same medium) | % Release ([1]; 960 minutes, same medium) | % Release ([1]; 1200 minutes, same medium) | % Release ([1]; 1400 minutes, same medium) | bulk density (bulk density; listed as α Form rifaximin) | tapped density (tapped density; listed as α Form rifaximin) | intrinsic dissolution profile compared with α Form ([1]; 0.1M sodium dihydrogen phosphate monohydrate + sodium lauryl sulphate) | bulk density (bulk density) | tapped density (tapped density)
1 | CO[C@H]1/C=C/O[C@@]2(C)Oc3c(C)c(O)c4c(O)c(c5c(nc6cc(C)ccn65)c4c3C2=O)NC(=O)/C(C)=C\C=C\[C@H](C)[C@H](O)[C@@H](C)[C@@H](O)[C@@H](C)[C@H](OC(C)=O)[C@@H]1C [α Form of Rifaximin, (2S,16Z,18E,20S,21S,22R,23R,24R,25S,26 S,27S,28E)-5,6,21,23,25-pentahydroxy-27-methoxy-2,4,11,16,20,22,24,26-octamethyl-2,7-(epoxypentadeca-[1,11,13]trienimino)benzofuro[4,5-e]pyrido[1,2-a]-benzimida-zole-1,15(2H)-dione,25-acetate, reference compound] | 0.8% | 1.8% | 3.0% | 4.4% | 11.0% | 18.0% | 24.6% | 38.7% | 47.5% | 52.7% | 56.4% | 62.9% | 67.8% | 72.7% | 0.2 to 0.3 g/mL | 0.3 to 0.4 g/mL | – | – | –
2 | CO[C@H]1/C=C/O[C@@]2(C)Oc3c(C)c(O)c4c(O)c(c5c(nc6cc(C)ccn65)c4c3C2=O)NC(=O)/C(C)=C\C=C\[C@H](C)[C@H](O)[C@@H](C)[C@@H](O)[C@@H](C)[C@H](OC(C)=O)[C@@H]1C [Amorphous Rifaximin, (2S,16Z,18E,20S,21S,22R,23R,24R,25S,26 S,27S,28E)-5,6,21,23,25-pentahydroxy-27-methoxy-2,4,11,16,20,22,24,26-octamethyl-2,7-(epoxypentadeca-[1,11,13]trienimino)benzofuro[4,5-e]pyrido[1,2-a]-benzimida-zole-1,15(2H)-dione,25-acetate] | 1.1% | 1.9% | 2.9% | 3.7% | 8.1% | 12.6% | 16.6% | 24.7% | 32.0% | 39.5% | 46.4% | 60.4% | 72.9% | 83.0% | – | – | better dissolution profile than α Form | 0.3 to 0.4 g/mL | 0.4 to 0.5 g/mL
